Experimental findings from patent publication US20240158394A1, “NEK7 INHIBITORS” (Halia Therapeutics, Inc., priority 2022, published 2024) are described below.

For the experiment, the target named is full-length recombinant human NEK7 (Homo sapiens (Human), UniProt Q8TDX7). Description: NEK7 Enzymatic Assay. The format is biochemical. The settings on record: casein substrate, [33P]-ATP, 2 hours at room temperature. The procedure: Casein substrate (from bovine milk, hydrolyzed and partially dephosphorylated mixture of α, β and κ caseins, obtained from Sigma Aldrich, catalogue #C4765, diluted in distilled water to a final concentration of 1 mg/mL) and full-length recombinant human NEK7 (expressed by baculovirus in Sf9 insect cells using a N-terminal GST tag, obtained from SignalChem, catalogue #N09-10G, 0.1 μg/μL) were mixed in assay buffer (20 mM HEPES pH 7.5, 10 mM MgCl2, 1 mM EGTA, 0.02% Brij35, 0.02 mg/mL BSA, 0.1 mM Na3VO4, 2 mM DTT, 1% DMSO). Compounds of interest (serial 3-fold dilution in DMSO from 10 μM to 0.5 nM) or vehicle (1% DMSO) were dispensed into the kinase reaction mixture by Acoustic technology (Echo550; nanoliter range). After incubation at room temperature for 20 minutes, the kinase reaction was initiated by addition of [^33P]-ATP (specific activity 10 μCi/μL) and the mixture was incubated at room temperature for 2 hours. The reaction was then stopped by spotting the reaction mixture on strips of phosphocellulose P81 paper. Following washing, the radioactivity of the P81 paper was measured and kinase activity data were expressed as the percent remaining kinase activity in test samples compared to vehicle reactions. IC50 values and curve fits were obtained using Prism (GraphPad Software).
Chain of full-length recombinant human NEK7 (Q8TDX7 whole entry): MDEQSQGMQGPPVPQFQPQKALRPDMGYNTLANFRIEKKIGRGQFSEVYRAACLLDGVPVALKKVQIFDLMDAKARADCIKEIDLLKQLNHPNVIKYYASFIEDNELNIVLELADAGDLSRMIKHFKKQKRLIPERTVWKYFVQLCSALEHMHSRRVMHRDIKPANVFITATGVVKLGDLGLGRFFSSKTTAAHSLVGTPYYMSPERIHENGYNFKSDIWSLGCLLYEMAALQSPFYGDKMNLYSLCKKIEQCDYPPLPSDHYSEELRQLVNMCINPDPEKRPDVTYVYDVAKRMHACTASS
The term IC50 denotes the midpoint of a concentration-inhibition curve. On to `CC(C)(C)c1cc(NC(=O)Nc2ccc(-c3cn(C4CC4)c4ncnc(N)c34)c3cccnc23)on1` [Example I-2, 1-(5-(4-amino-7-cyclopropyl-7H-pyrrolo[2,3-d]pyrimidin-5-yl)quinolin-8-yl)-3-(3-(tert-butyl)isoxazol-5-yl)urea], for which the IC50 was above 2000 nM.

In the case of `CCN1CCN(Cc2ccc(NC(=O)Nc3ccc(-c4cn(C5CC5)c5ncnc(N)c45)c4c3OCC4)cc2C(F)(F)F)CC1` [Example I-54, 1-(4-(4-amino-7-cyclopropyl-7H-pyrrolo[2,3-d]pyrimidin-5-yl)-2,3-dihydrobenzofuran-7-yl)-3-(4-((4-ethylpiperazin-1-yl)methyl)-3-(trifluorometh-yl)phenyl)urea], the IC50 is below 200 nM.

As for `CCN1CCC(Oc2ccc(NC(=O)Nc3ccc(-c4cn(C(C)C)c5ncnc(N)c45)n4ccnc34)cc2C(F)(F)F)CC1` [Example I-136, 1-(5-(4-amino-7-isopropyl-7H-pyrrolo[2,3-d]pyrimidin-5-yl)imidazo[1,2-a]pyridin-8-yl)-3-(4-((1-ethylpiperidin-4-yl)oxy)-3-(trifluoromethyl)-phenyl)urea], the IC50 is below 200 nM.

Regarding `CCN1CCC(Oc2ccc(NC(=O)Nc3ccc(-c4cn(C5CC5)c5ncnc(N)c45)c4cnoc34)cc2C(F)(F)F)CC1` [Example I-125, 1-(4-(4-amino-7-cyclopropyl-7H-pyrrolo[2,3-d]pyrimidin-5-yl)benzo[d]isoxazol-7-yl)-3-(4-((1-ethylpiperidin-4-yl)oxy)-3-(trifluoromethyl)phenyl)urea], the IC50 lay within 200 to 500 nM.

`Cc1cc(NC(=O)Nc2ccc(-c3cn(C4CC4)c4ncnc(N)c34)n3ccnc23)on1` [Example I-14, 1-(5-(4-amino-7-cyclopropyl-7H-pyrrolo[2,3-d]pyrimidin-5-yl)imidazo[1,2-a]pyridin-8-yl)-3-(3-methylisoxazol-5-yl)-urea]: the IC50 was above 2000 nM.

Turning to `CN1CCC(n2cc(-c3ccc(NC(=O)Nc4cc(C5(C(F)(F)F)CC5)on4)c4nccn34)c3c(N)ncnc32)CC1` [Example I-95, 1-(5-(4-amino-7-(1-methyl-piperidin-4-yl)-7H-pyrrolo-[2,3-d]pyrimidin-5-yl)imid-azo[1,2-a]pyridin-8-yl)-3-(5-(1-(trifluoromethyl)cyclo-propyl)isoxazol-3-yl)urea], the IC50 lay within 200 to 500 nM.

With `Nc1ncnc2c1c(-c1ccc(NC(=O)Nc3cc(C4CC4)no3)c3nccn13)cn2C1CC1` [Example I-119, 1-(5-(4-amino-7-cyclopropyl-7H-pyrrolo[2,3-d]pyrimidin-5-yl)imidazo[1,2-a]pyridin-8-yl)-3-(3-cyclopropylisoxazol-5-yl)urea], the IC50 lay in the range of 200 to 500 nM.

`CCN1CCC(Oc2ccc(NC(=O)Nc3ccc(-c4cn(C5CC5)c5ncnc(N)c45)n4ccnc34)cc2C(F)(F)F)CC1` [Example I-38, 1-(5-(4-amino-7-cyclopropyl-7H-pyrrolo[2,3-d]pyrimidin-5-yl)imidazo[1,2-a]pyridin-8-yl)-3-(4-((1-ethylpiperidin-4-yl)oxy)-3-(trifluoromethyl)-phenyl)urea]: the IC50 was below 200 nM.

In the case of `Nc1ncnc2c1c(-c1ccc(NC(=O)Nc3cc(C4(C(F)(F)F)CC4)no3)c3ccccc13)cn2C1CC1` [Example I-1, 1-(4-(4-amino-7-cyclopropyl-7H-pyrrolo[2,3-d]pyrimidin-5-yl)naphthalen-1-yl)-3-(3-(1-(trifluoromethyl)cyclopropyl)-isoxazol-5-yl)urea], the IC50 is above 2000 nM.

`CCc1cc(NC(=O)Nc2ccc(-c3cn(C4CC4)c4ncnc(N)c34)n3ccnc23)on1` [Example I-15, 1-(5-(4-amino-7-cyclopropyl-7H-pyrrolo[2,3-d]pyrimidin-5-yl)imidazo[1,2-a]pyridin-8-yl)-3-(3-ethylisoxazol-5-yl)-urea]: the IC50 lay in the range of 200 to 500 nM.

For the molecule `CN1CCN(Cc2ccc(NC(=O)Nc3ccc(-c4cn(C5CC(O)C5)c5ncnc(N)c45)n4ccnc34)cc2C(F)(F)F)CC1` (centres unmarked) [Example I-132, 1-(5-(4-amino-7-(3-hydroxy-cyclobutyl)-7H-pyrrolo[2,3-d]pyrimidin-5-yl)imidazo[1,2-a]pyridin-8-yl)-3-(4-((4-meth-ylpiperazin-1-yl)methyl)-3-(trifluoromethyl)phenyl)urea], the IC50 is below 200 nM.

Consider `CCN1CCN(Cc2ccc(NC(=O)Nc3ccc(-c4cn(C5CC5)c5ncnc(N)c45)n4ccnc34)cc2C(F)(F)F)CC1` [Example I-35, 1-(5-(4-amino-7-cyclopropyl-7H-pyrrolo[2,3-d]pyrimidin-5-yl)imidazo[1,2-a]pyridin-8-yl)-3-(4-((4-ethylpiperazin-1-yl)methyl)-3-(trifluorometh-yl)phenyl)urea], for which the IC50 was below 200 nM.

`CN1CCC(n2cc(-c3ccc(NC(=O)Nc4ccc(CN5CCN(C)CC5)c(C(F)(F)F)c4)c4nccn34)c3c(N)ncnc32)CC1` [Example I-134, 1-(5-(4-amino-7-(1-methyl-piperidin-4-yl)-7H-pyrrolo-[2,3-d]pyrimidin-5-yl)imidazo-[1,2-a]pyridin-8-yl)-3-(4-((4-methylpiperazin-1-yl)methyl)-3-(trifluoromethyl)phenyl)urea]: the IC50 was 200 to 500 nM.

For `CC(C)(c1cc(NC(=O)Nc2ccc(-c3cn(C4CC4)c4ncnc(N)c34)n3ccnc23)on1)C(F)(F)F` [Example I-21, 1-(5-(4-amino-7-cyclopropyl-7H-pyrrolo[2,3-d]pyrimidin-5-yl)imidazo[1,2-a]pyridin-8-yl)-3-(3-(1,1,1-trifluoro-2-methylpropan-2-yl)isoxazol-5-yl)urea], the IC50 is below 200 nM.

For the molecule `CCN1CCC(Oc2ccc(NC(=O)Nc3ccc(-c4cn(C5CCC5)c5ncnc(N)c45)n4ccnc34)cc2C(F)(F)F)CC1` [Example I-137, 1-(5-(4-amino-7-cyclobutyl-7H-pyrrolo[2,3-d]pyrimidin-5-yl)imidazo[1,2-a]pyridin-8-yl)-3-(4-((1-ethylpiperidin-4-yl)oxy)-3-(trifluoromethyl)-phenyl)urea], the IC50 is below 200 nM.

On to `Nc1ncnc2c1c(-c1ccc(NC(=O)Nc3cc(C4(C(F)(F)F)CCC4)no3)c3nccn13)cn2C1CC1` [Example I-23, 1-(5-(4-amino-7-cyclopropyl-7H-pyrrolo[2,3-d]pyrimidin-5-yl)imidazo[1,2-a]pyridin-8-yl)-3-(3-(1-(trifluoromethyl)-cyclobutyl)isoxazol-5-yl)urea], for which the IC50 was below 200 nM.

Consider `CC(C)(c1cc(NC(=O)Nc2ccc(-c3cn(C4CC4)c4ncnc(N)c34)n3ccnc23)no1)C(F)(F)F` [Example I-31, 1-(5-(4-amino-7-cyclopropyl-7H-pyrrolo[2,3-d]pyrimidin-5-yl)imidazo[1,2-a]pyridin-8-yl)-3-(5-(1,1,1-trifluoro-2-methylpropan-2-yl)isoxazol-3-yl)urea], for which the IC50 was below 200 nM.

With `Nc1ncnc2c1c(-c1ccc(NC(=O)Nc3cc(C4(C(F)(F)F)CC4)on3)c3ocnc13)cn2C1CC1` [Example I-71, 1-(4-(4-amino-7-cyclopropyl-7H-pyrrolo[2,3-d]pyrimidin-5-yl)benzo[d]oxazol-7-yl)-3-(5-(1-(trifluoromethyl)cyclo-propyl)isoxazol-3-yl)urea], the IC50 was 500 to 2000 nM.

`CC(C)(C)c1cc(NC(=O)Nc2ccc(-c3cn(C4CC4)c4ncnc(N)c34)n3ccnc23)n(-c2ccc(Cl)cc2)n1` [Example I-13, 1-(5-(4-amino-7-cyclopropyl-7H-pyrrolo[2,3-d]pyrimidin-5-yl)imidazo[1,2-a]pyridin-8-yl)-3-(3-(tert-butyl)-1-(4-chlorophenyl)-1H-pyrazol-5-yl)urea]: the IC50 was 500 to 2000 nM.

For the molecule `CC(C)(C)c1cc(NC(=O)Nc2ccc(-c3cn(C4CC4)c4ncnc(N)c34)c3ccncc23)on1` [Example I-5, 1-(5-(4-amino-7-cyclopropyl-7H-pyrrolo[2,3-d]pyrimidin-5-yl)isoquinolin-8-yl)-3-(3-(tert-butyl)isoxazol-5-yl)urea], the IC50 was below 200 nM.

Turning to `Nc1ncnc2c1c(-c1ccc(NC(=O)Nc3cc(C4(C(F)(F)F)CC4)no3)c3occc13)cn2C1CC1` [Example I-64, 1-(4-(4-amino-7-cyclopropyl-7H-pyrrolo[2,3-d]pyrimidin-5-yl)benzofuran-7-yl)-3-(3-(1-(trifluoromethyl)cyclo-propyl)isoxazol-5-yl)urea], the IC50 is above 2000 nM.

Turning to `Nc1ncnc2c1c(-c1ccc(NC(=O)Nc3cc(C4(C(F)(F)F)CC4)on3)c3nccn13)cn2-c1cccnc1` [Example I-91, 1-(5-(4-amino-7-(pyridin-3-yl)-7H-pyrrolo[2,3-d]pyrimidin-5-yl)imidazo[1,2-a]pyridin-8-yl)-3-(5-(1-(trifluoromethyl)-cyclopropyl)isoxazol-3-yl)urea], the IC50 is below 200 nM.

As for `CN1CCC(Oc2ccc(NC(=O)Nc3ccc(-c4cn(C5CC5)c5ncnc(N)c45)c4ccncc34)cc2C(F)(F)F)CC1` [Example I-10, 1-(5-(4-amino-7-cyclopropyl-7H-pyrrolo[2,3-d]pyrimidin-5-yl)isoquinolin-8-yl)-3-(4-((1-methylpiperidin-4-yl)oxy)-3-(trifluoromethyl)phenyl)urea], the IC50 was below 200 nM.
